# Patent US20240101521A1, “DIAMINOTRIAZINE COMPOUNDS” (BASF SE, priority 2021, published 2024)
# Tests used:
# Experiment in all cases: greenhouse pre-emergence herbicidal test
# Format in all cases: in vivo
# Setaria faberi = conditions: scale 0 to 100
# Description: (§1) The culture containers used were plastic flowerpots containing loamy sand with approximately 3.0% of humus as the substrate. The seeds of the test plants were sown separately for each species.
# (§2) For the pre-emergence treatment, the active ingredients, which had been suspended or emulsified in water, were applied directly after sowing by means of finely distributing nozzles. The containers were irrigated gently to promote germination and growth and subsequently covered with transparent plastic hoods until the plants had rooted. This cover caused uniform germination of the test plants, unless this had been impaired by the active ingredients. For the post-emergence treatment, the test plants were first grown to a height of 3 to 15 cm, depending on the plant habit, and only then treated with the active ingredients which had been suspended or emulsified in water. For this purpose, the test plants were either sown directly and grown in the same containers, or they were first grown separately as seedlings and transplanted into the test containers a few days prior to treatment.
# (§3) Depending on the species, the plants were kept at 10-25° C. or 20-35° C., respectively.
# (§4) The test period extended over 2 to 4 weeks. During this time, the plants were tended, and their response to the individual treatments was evaluated.
# (§5) Evaluation was carried out using a scale from 0 to 100. 100 means no emergence of the plants, or complete destruction of at least the aerial moieties, and 0 means no damage, or normal course of growth. A moderate herbicidal activity is given at values of at least 60, a good herbicidal activity is given at values of at least 70, and a very good herbicidal activity is given at values of at least 85.
# (§6) The plants used in the greenhouse experiments were of the following species: […]
# Alopecurus myosuroides = conditions: scale 0 to 100
# Description: as §1, §2, §3, §4, §5, §6
# Amaranthus retroflexus = conditions: scale 0 to 100
# Description: as §1, §2, §3, §4, §5, §6
# Lolium multiflorum = conditions: pre-emergence, 62,5 g/ha, scale 0 to 100
# Description: as §1, §2, §3, §4, §5, §6
# Echinochloa crus-galli = conditions: scale 0 to 100
# Description: as §1, §2, §3, §4, §5, §6
# Digitaria sanguinalis = conditions: scale 0 to 100
# Description: as §1, §2, §3, §4, §5, §6
# Abutilon theophrasti = conditions: scale 0 to 100
# Description: as §1, §2, §3, §4, §5, §6
# Apera spica-venti = conditions: 31 g/ha, scale 0 to 100
# Description: as §1, §2, §3, §4, §5, §6
compound,measurement,setting,value
C#CC(C)Oc1c(Br)cc(F)c(F)c1Nc1nc(N)nc(C2(F)CCCC2)n1 (stereo not drawn) [Example 97],herbicidal activity,"Setaria faberi; pre-emergence, 62 g/ha",85%
same,herbicidal activity,"Alopecurus myosuroides; pre-emergence, 62 g/ha",70%
same,herbicidal activity,"Amaranthus retroflexus; pre-emergence, 62 g/ha",85%
CC(C)(F)c1nc(N)nc(Nc2c(F)c(F)cc(Br)c2OC/C=C/Cl)n1 [Example 124],herbicidal activity,"Setaria faberi; pre-emergence, 62,5 g/ha",100%
same,herbicidal activity,Lolium multiflorum,80%
same,herbicidal activity,"Amaranthus retroflexus; pre-emergence, 62,5 g/ha",100%
COc1c(Cl)cc(F)c(F)c1Nc1nc(N)nc(C(F)CC(C)C)n1 (racemic) [Example 12],herbicidal activity,"Setaria faberi; pre-emergence, 250 g/ha",100%
same,herbicidal activity,"Echinochloa crus-galli; pre-emergence, 250 g/ha",100%
same,herbicidal activity,"Alopecurus myosuroides; pre-emergence, 250 g/ha",100%
COc1c(Cl)ccc(F)c1Nc1nc(N)nc(C(C)(C)F)n1 [Example 2],herbicidal activity,"Digitaria sanguinalis; pre-emergence, 62,5 g/ha",100%
same,herbicidal activity,"Echinochloa crus-galli; pre-emergence, 62,5 g/ha",100%
same,herbicidal activity,"Abutilon theophrasti; pre-emergence, 62,5 g/ha",100%
C#CCOc1c(Cl)cc(F)c(F)c1Nc1nc(N)nc(C2(F)CCCC2)n1 [Example 129],herbicidal activity,"Setaria faberi; pre-emergence, 62,5 g/ha",100%
same,herbicidal activity,Lolium multiflorum,90%
same,herbicidal activity,"Amaranthus retroflexus; pre-emergence, 62,5 g/ha",95%
CC#CCOc1c(Br)cc(F)c(F)c1Nc1nc(N)nc(C(C)(C)F)n1 [Example 15],herbicidal activity,"Setaria faberi; pre-emergence, 125 g/ha",100%
same,herbicidal activity,"Echinochloa crus-galli; pre-emergence, 125 g/ha",100%
same,herbicidal activity,"Alopecurus myosuroides; pre-emergence, 125 g/ha",100%
COc1c(C)c(F)c(F)c(F)c1Nc1nc(N)nc(C(C)(C)F)n1 [Example 169],herbicidal activity,"Echinochloa crus-galli; pre-emergence, 62,5 g/ha",100%
same,herbicidal activity,"Alopecurus myosuroides; pre-emergence, 62,5 g/ha",100%
same,herbicidal activity,"Amaranthus retroflexus; pre-emergence, 62,5 g/ha",100%
CC(C)(F)c1nc(N)nc(Nc2c(F)c(F)cc(Cl)c2OC/C=C/Br)n1 [Example 125],herbicidal activity,"Setaria faberi; pre-emergence, 62,5 g/ha",100%
same,herbicidal activity,Lolium multiflorum,100%
same,herbicidal activity,"Amaranthus retroflexus; pre-emergence, 62,5 g/ha",100%
CC(C)(F)c1nc(N)nc(Nc2c(F)c(F)cc(F)c2OC/C=C/Br)n1 [Example 127],herbicidal activity,"Setaria faberi; pre-emergence, 62,5 g/ha",100%
same,herbicidal activity,Lolium multiflorum,100%
same,herbicidal activity,"Amaranthus retroflexus; pre-emergence, 62,5 g/ha",100%
CCC(C)(F)c1nc(N)nc(Nc2c(F)c(F)cc(Cl)c2OC)n1 (stereo not drawn) [Example 116],herbicidal activity,"Abutilon theophrasti; pre-emergence, 62,5 g/ha",100%
same,herbicidal activity,"Alopecurus myosuroides; pre-emergence, 62,5 g/ha",100%
same,herbicidal activity,"Amaranthus retroflexus; pre-emergence, 62,5 g/ha",100%
COc1c(Br)c(F)c(F)c(F)c1Nc1nc(N)nc(C(C)(C)F)n1 [Example 164],herbicidal activity,"Setaria faberi; pre-emergence, 62,5 g/ha",100%
same,herbicidal activity,"Alopecurus myosuroides; pre-emergence, 62,5 g/ha",100%
same,herbicidal activity,"Amaranthus retroflexus; pre-emergence, 62,5 g/ha",100%
CC(C)(F)c1nc(N)nc(Nc2c(F)c(F)cc(Cl)c2OCC#CC2CC2)n1 [Example 30],herbicidal activity,"Setaria faberi; pre-emergence, 31 g/ha",100%
same,herbicidal activity,"Abutilon theophrasti; pre-emergence, 31 g/ha",100%
same,herbicidal activity,"Alopecurus myosuroides; pre-emergence, 31 g/ha",100%
"COc1c(Br)ccc(F)c1Nc1nc(N)nc(C(C)(C)F)n1 [Example 4, N4-(3-bromo-6-fluoro-2-methoxy-phenyl)-6-(1-fluoro-1-methyl-ethyl)-1,3,5-triazine-2,4-diamine]",herbicidal activity,"Digitaria sanguinalis; pre-emergence, 62,5 g/ha",100%
same,herbicidal activity,"Echinochloa crus-galli; pre-emergence, 62,5 g/ha",100%
same,herbicidal activity,"Abutilon theophrasti; pre-emergence, 62,5 g/ha",100%
COc1c(Cl)cc(Cl)c(F)c1Nc1nc(N)nc(C2(F)CCCC2)n1 [Example 60],herbicidal activity,"Setaria faberi; pre-emergence, 31 g/ha",98%
same,herbicidal activity,Apera spica-venti,95%
same,herbicidal activity,"Amaranthus retroflexus; pre-emergence, 31 g/ha",100%
COc1c(Cl)cc(C)c(F)c1Nc1nc(N)nc(C(C)(C)F)n1 [Example 3],herbicidal activity,"Digitaria sanguinalis; pre-emergence, 62,5 g/ha",100%
same,herbicidal activity,"Echinochloa crus-galli; pre-emergence, 62,5 g/ha",100%
same,herbicidal activity,"Abutilon theophrasti; pre-emergence, 62,5 g/ha",100%
CC#CC(C)Oc1c(Cl)cc(F)c(F)c1Nc1nc(N)nc(C(C)(C)F)n1 (stereo not drawn) [Example 98],herbicidal activity,"Setaria faberi; pre-emergence, 62 g/ha",100%
same,herbicidal activity,"Alopecurus myosuroides; pre-emergence, 62 g/ha",100%
same,herbicidal activity,"Amaranthus retroflexus; pre-emergence, 62 g/ha",100%
CC(C)(F)c1nc(N)nc(Nc2c(F)ccc(Br)c2OC2CC2)n1 [Example 13],herbicidal activity,"Setaria faberi; pre-emergence, 62,5 g/ha",100%
same,herbicidal activity,"Echinochloa crus-galli; pre-emergence, 62,5 g/ha",100%
same,herbicidal activity,"Alopecurus myosuroides; pre-emergence, 62,5 g/ha",100%
CC#CC(C)Oc1c(Cl)cc(F)c(F)c1Nc1nc(N)nc(C2(F)CCCC2)n1 (stereo not drawn) [Example 100],herbicidal activity,"Setaria faberi; pre-emergence, 62 g/ha",100%
same,herbicidal activity,"Echinochloa crus-galli; pre-emergence, 62 g/ha",100%
same,herbicidal activity,"Alopecurus myosuroides; pre-emergence, 62 g/ha",98%
COc1c(Cl)c(F)c(F)c(F)c1Nc1nc(N)nc(C(C)(C)OC)n1 [Example 174],herbicidal activity,Lolium multiflorum,100%
same,herbicidal activity,"Alopecurus myosuroides; pre-emergence, 62,5 g/ha",98%
same,herbicidal activity,"Amaranthus retroflexus; pre-emergence, 62,5 g/ha",100%
CC#CC(C)Oc1c(F)cc(F)c(F)c1Nc1nc(N)nc(C2(F)CCCC2)n1 (stereo not drawn) [Example 104],herbicidal activity,"Echinochloa crus-galli; pre-emergence, 62,5 g/ha",100%
same,herbicidal activity,Lolium multiflorum,100%
same,herbicidal activity,"Abutilon theophrasti; pre-emergence, 62,5 g/ha",100%
COc1c(Cl)cc(F)c(F)c1Nc1nc(N)nc(C2(F)CCCC2)n1 [Example 11],herbicidal activity,"Setaria faberi; pre-emergence, 250 g/ha",100%
same,herbicidal activity,"Echinochloa crus-galli; pre-emergence, 250 g/ha",100%
same,herbicidal activity,"Alopecurus myosuroides; pre-emergence, 250 g/ha",100%
COc1c(Cl)cc(Cl)c(F)c1Nc1nc(N)nc(C(C)F)n1 (stereo not drawn) [Example 63],herbicidal activity,"Setaria faberi; pre-emergence, 31 g/ha",100%
same,herbicidal activity,"Alopecurus myosuroides; pre-emergence, 31 g/ha",80%
same,herbicidal activity,"Amaranthus retroflexus; pre-emergence, 31 g/ha",80%
COc1c(Br)cc(F)c(F)c1Nc1nc(N)nc(C(C)(F)CBr)n1 (stereo not drawn) [Example 123],herbicidal activity,"Setaria faberi; pre-emergence, 62,5 g/ha",100%
same,herbicidal activity,"Alopecurus myosuroides; pre-emergence, 62,5 g/ha",100%
same,herbicidal activity,"Amaranthus retroflexus; pre-emergence, 62,5 g/ha",100%
CC#CC(Oc1c(F)cc(F)c(F)c1Nc1nc(N)nc(C(C)(C)F)n1)C1CC1 (stereo not drawn) [Example 119],herbicidal activity,"Setaria faberi; pre-emergence, 62,5 g/ha",85%
same,herbicidal activity,Lolium multiflorum,70%
same,herbicidal activity,"Amaranthus retroflexus; pre-emergence, 62,5 g/ha",85%
CC(C)(F)c1nc(N)nc(Nc2c(F)c(F)cc(F)c2OC/C=C/Cl)n1 [Example 126],herbicidal activity,"Setaria faberi; pre-emergence, 62,5 g/ha",100%
same,herbicidal activity,Lolium multiflorum,100%
same,herbicidal activity,"Amaranthus retroflexus; pre-emergence, 62,5 g/ha",100%
COc1c(Cl)c(F)c(F)c(F)c1Nc1nc(N)nc(C(C)(C)F)n1 [Example 148],herbicidal activity,Lolium multiflorum,100%
same,herbicidal activity,"Alopecurus myosuroides; pre-emergence, 62,5 g/ha",100%
same,herbicidal activity,"Amaranthus retroflexus; pre-emergence, 62,5 g/ha",100%
COc1c(Br)ccc(F)c1Nc1nc(N)nc(C2(F)CCCCC2)n1 [Example 5],herbicidal activity,"Digitaria sanguinalis; pre-emergence, 250 g/ha",100%
same,herbicidal activity,"Echinochloa crus-galli; pre-emergence, 250 g/ha",85%
same,herbicidal activity,"Abutilon theophrasti; pre-emergence, 250 g/ha",90%
C=CC(C)(F)c1nc(N)nc(Nc2c(F)c(F)c(F)c(Cl)c2OC)n1 (stereo not drawn) [Example 173],herbicidal activity,"Setaria faberi; pre-emergence, 62,5 g/ha",95%
same,herbicidal activity,"Alopecurus myosuroides; pre-emergence, 62,5 g/ha",100%
same,herbicidal activity,"Amaranthus retroflexus; pre-emergence, 62,5 g/ha",100%
C#CC(C)(F)c1nc(N)nc(Nc2c(F)c(F)cc(Br)c2OC)n1 (stereo not drawn) [Example 115],herbicidal activity,"Abutilon theophrasti; pre-emergence, 62,5 g/ha",90%
same,herbicidal activity,"Alopecurus myosuroides; pre-emergence, 62,5 g/ha",98%
same,herbicidal activity,"Amaranthus retroflexus; pre-emergence, 62,5 g/ha",100%
CC=C(Cl)COc1c(Cl)cc(F)c(F)c1Nc1nc(N)nc(C(C)(C)F)n1 [Example 53],herbicidal activity,"Setaria faberi; pre-emergence, 62,5 g/ha",100%
same,herbicidal activity,"Echinochloa crus-galli; pre-emergence, 62,5 g/ha",98%
same,herbicidal activity,"Alopecurus myosuroides; pre-emergence, 62,5 g/ha",90%
Nc1nc(Nc2c(F)ccc(Br)c2OC2CC2)nc(C2(F)CCCC2)n1 [Example 14],herbicidal activity,"Setaria faberi; pre-emergence, 125 g/ha",100%
same,herbicidal activity,"Echinochloa crus-galli; pre-emergence, 125 g/ha",98%
same,herbicidal activity,"Alopecurus myosuroides; pre-emergence, 125 g/ha",98%
